Here are results for 46 compounds from patent US20250188079A1, “INHIBITING CYCLIC AMP-RESPONSIVE ELEMENT-BINDING PROTEIN (CREB)” (Forma Therapeutics, Inc., priority 2019, published 2025).

For the experiment, the target named is CBP (Homo sapiens (Human), UniProt Q92793). The experiment in a line: HTRF biochemical assay for CBP activity (TR-FRET, bromodomain). The settings on record: geometric mean, 10-point 3-fold dilution 33 μM to 1.7 nM, read-out: BROMO IC50 TRF TB CBP (μM gmean). It is filed as binding. The procedure, abridged: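 IC50 derives from a 4-parameter logistic fit of % inhibition, calculated from the 520/490 nm TR-FRET ratio against DMSO and no-enzyme controls. Final compound levels spanned 33 μM to 1.7 nM (10 points, 3-fold), with CBP and peptide ligand in Hepes pH 7.5/GSH/BGG/BSA/Triton buffer, incubated at room temperature for varying times.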
Chain of CBP (Q92793 1085-1192): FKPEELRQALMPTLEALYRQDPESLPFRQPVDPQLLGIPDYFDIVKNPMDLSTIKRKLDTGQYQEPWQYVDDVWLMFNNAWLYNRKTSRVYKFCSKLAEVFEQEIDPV

For `COC(=O)N1CCc2ccc3c(nc(-c4cccc([C@](C)(O)C(=O)O)c4)n3[C@@H](C)Cc3ccccc3)c2C1` [Compound 184], the IC50 was in the range of 0.01 to 0.1 µM.

In the case of `COC(=O)N1CCc2ccc3c(nc(-c4cccc(CC(=O)O)c4)n3[C@H](C)Cc3cc(F)cc(F)c3)c2C1` [Compound 322], the IC50 was in the range of 0.1 to 1 µM.

Take `COC(=O)N1CCc2ccc3c(nc([C@H]4CC[C@H](C(=O)NS(C)(=O)=O)CC4)n3[C@H](C)Cc3ccccc3)c2C1` (single isomer, unassigned) [Compound 290]: the IC50 fell in the range of 0.1 to 1 µM. Regarding `COC(=O)N1CCc2ccc3c(nc([C@H]4CC[C@@H](C(=O)O)C4)n3[C@@H](C)Cc3ccccc3C)c2C1` [Compound 218], the IC50 was in the range of 0.01 to 0.1 µM. Consider `COC(=O)N1CCc2ccc3c(nc([C@H]4CC[C@H](S(N)(=O)=O)CC4)n3[C@@H](C)Cc3ccccc3)c2C1` [Compound 97], for which the IC50 lay in the range of 0.001 to 0.01 µM. With `COC(=O)N1CCc2ccc3c(nc([C@H]4CC[C@H](C(=O)O)CC4)n3[C@H](C)Cc3cc(F)cc(F)c3)c2C1` [Compound 253], the IC50 is 0.01 to 0.1 µM.

As for `COC(=O)N1CCc2ccc3c(nc([C@@H]4CCC[C@@H](C(=O)O)C4)n3CC[C@H]3CC[C@H](OC)CC3)c2C1` [Compound 156], the IC50 was 0.001 to 0.01 µM. As for `COC(=O)N1CCc2ccc3c(nc([C@H]4CCC[C@H](C(=O)O)C4)n3[C@H](C)Cc3ccccc3Cl)c2C1` (single isomer, unassigned) [Compound 176], the IC50 was in the range of 0.01 to 0.1 µM. For `COC(=O)N1CCc2ccc3c(nc(-c4cccc(C(C)(C)C(=O)O)c4)n3[C@@H](C)Cn3cc(Cl)cn3)c2C1` [Compound 185], the IC50 was 0.01 to 0.1 µM.

`COC(=O)N1CCc2ccc3c(nc(N4CCNCC4)n3[C@H](C)Cc3ccccc3)c2C1` [Compound 347]: the IC50 lay within 1 to 1000 µM. As to `COC(=O)N1CCc2c(Cl)cc3c(nc([C@H]4CC[C@H](C(=O)O)CC4)n3CCc3ccccc3)c2C1` [Compound 154], the IC50 was in the range of 0.001 to 0.01 µM. `COC(=O)N1CCc2ccc3c(nc(N4CC[C@H](C(=O)O)C4)n3[C@@H](C)Cc3ccccc3)c2C1` [Compound 222]: the IC50 lay within 0.01 to 0.1 µM. For `COC(=O)N1CCc2ccc3c(nc(C4CCCC4)n3C[C@H](CC(=O)O)c3ccccc3)c2C1` (single isomer, unassigned) [Compound 174], the concentration for half-maximal inhibition (IC50) is 0.01 to 0.1 µM.

Turning to `COC(=O)N1CCc2ccc3c(nc(C4CCCCC4)n3C[C@H]3CC[C@H](C(=O)O)CC3)c2C1` [Compound 83], the IC50 fell in the range of 0.001 to 0.01 µM. In the case of `COC(=O)N1CCc2ccc3c(nc(C4CCC(C(=O)O)CC4)n3CCc3ccccc3)c2C1` (stereo not shown) [Compound 84], the IC50 lay in the range of 0.001 to 0.01 µM. Regarding `COC(=O)N1CCc2ccc3c(nc([C@H]4CC[C@H](C(=O)O)CC4)n3[C@@H](C)[C@H](O)c3ccccc3)c2C1` [Compound 268], the IC50 was in the range of 0.01 to 0.1 µM. To `COC(=O)N1CCc2ccc3c(nc([C@H]4CC[C@H](C(=O)O)CC4)n3Cc3ccc(OC(F)F)cc3)c2C1` [Compound 171] belongs 0.001 to 0.01 µM. Regarding `COC(=O)N1CCc2ccc3c(nc(C4CCCCC4)n3[C@@H](C)C[C@@H]3CCCC[C@@H]3C(=O)O)c2C1` [Compound 120], the IC50 lay in the range of 0.001 to 0.01 µM. Consider `COC(=O)N1CCc2ccc3c(nc(C4CCCCC4)n3C[C@H](CC(=O)O)c3cc(F)cc(OC)c3)c2C1` [Compound 36], for which the IC50 lay in the range of 0.001 to 0.01 µM. Consider `COC(=O)N1CCc2ccc3c(nc(-c4ccccn4)n3[C@H](C)Cc3ccccc3)c2C1` [Compound 304], for which the 50% inhibitory concentration (IC50) was in the range of 0.1 to 1 µM. On to `COC(=O)N1CCc2ccc3c(nc(-c4ccc(C(=O)O)cc4)n3[C@H](C)Cc3ccccc3)c2C1` [Compound 279], for which the IC50 lay in the range of 0.01 to 0.1 µM. In the case of `COC(=O)N1CCc2ccc3c(nc([C@H]4CCC[C@H](C(=O)O)C4)n3Cc3cccc(Cl)n3)c2C1` [Compound 225], the IC50 is 0.01 to 0.1 µM. For `COC(=O)N1CCc2ccc3c(nc([C@H]4CC[C@H](C(=O)O)CC4)n3[C@@H](C)C[C@H]3CCCOC3)c2C1` [Compound 296], the IC50 fell in the range of 0.1 to 1 µM. With `COC(=O)N1CCc2ccc3c(nc(C4CCCCC4)n3C[C@H](CC(=O)O)c3ccc(F)c(F)c3)c2C1` (single isomer, unassigned) [Compound 189], the IC50 lay within 0.01 to 0.1 µM. Consider `COC(=O)N1CCc2ccc3c(nc(C4CCCCC4)n3C[C@H](C(=O)O)c3cc(F)c(Cl)cc3OC)c2C1` (single isomer, unassigned) [Compound 229], for which the IC50 lay within 0.01 to 0.1 µM. For the compound `COC(=O)N1CCc2ccc3c(nc([C@H]4CC[C@H](C(=O)O)CC4)n3[C@H](C)C[C@H]3CC[C@@H](OC)CC3)c2C1` [Compound 68], the IC50 lay in the range of 0.001 to 0.01 µM.

Turning to `COC(=O)N1CCc2ccc3c(nc(C4CCCCC4)n3C[C@@H]3CCCC[C@H]3C(=O)O)c2C1` [Compound 227], the IC50 was 0.01 to 0.1 µM. As for `COC(=O)N1CCc2ccc3c(nc(C4CCCCC4)n3CC(C(=O)O)C3CCCCC3)c2C1` (stereo not shown) [Compound 126], the IC50 lay in the range of 0.001 to 0.01 µM. On to `COC(=O)N1CCc2ccc3c(nc(C4CCCCC4)n3CC[C@H]3CCCC[C@H]3C(=O)O)c2C1` [Compound 193], for which the IC50 lay in the range of 0.01 to 0.1 µM.

Turning to `COC[C@@H](Cc1ccccc1)n1c2ccc3c(c2nc1[C@H]1CC[C@H](C(=O)O)CC1)CN(C(=O)OC)CC3` [Compound 124], the IC50 was in the range of 0.001 to 0.01 µM. For the compound `COC(=O)N1CCc2ccc3c(nc(C4CCCCC4)n3CC[C@H]3CCC[C@@H](C(=O)O)C3)c2C1` [Compound 177], the IC50 lay within 0.01 to 0.1 µM. For `COC(=O)N1CCc2ccc3c(nc(N4CCOCC4)n3[C@@H](C)Cc3cccc(C(=O)O)c3)c2C1` [Compound 182], the IC50 was in the range of 0.01 to 0.1 µM.

Regarding `COC(=O)N1Cc2c(ccc3c2nc(C2CCCCC2)n3Cc2ccccc2)CC1C` (stereo not shown) [Compound 328], the IC50 lay within 0.1 to 1 µM. Regarding `COC(=O)N1CCc2ccc3c(nc([C@H]4CC[C@](C)(C(=O)O)CC4)n3[C@@H](C)Cc3ccccc3)c2C1` [Compound 224], the IC50 lay in the range of 0.01 to 0.1 µM. With `COC(=O)N1CCc2ccc3c(nc([C@H]4CC[C@H](C(=O)O)CC4)n3[C@@H](C)Cc3ccc(F)c(OC)c3)c2C1` [Compound 43], the IC50 lay in the range of 0.001 to 0.01 µM. In the case of `COC(=O)N1CCc2ccc3c(nc([C@@H]4CCC[C@@H](C(=O)O)C4)n3[C@@H](C)Cc3ccccc3C)c2C1` (single isomer, unassigned) [Compound 17], the IC50 fell in the range of 0.001 to 0.01 µM.

For `COC(=O)N1CCc2c(C#N)cc3c(nc([C@H]4CC[C@H](C(=O)O)CC4)n3CCc3ccccc3)c2C1` [Compound 121], the 50% inhibitory concentration (IC50) fell in the range of 0.001 to 0.01 µM. For the compound `COC(=O)N1CCc2ccc3c(nc(C4CCN(S(N)(=O)=O)CC4)n3[C@@H](C)Cc3ccccc3)c2C1` [Compound 107], the IC50 lay in the range of 0.001 to 0.01 µM.

With `COC(=O)N1CCc2ccc3c(nc(N4CCC(C(=O)O)CC4)n3[C@H](C)Cc3ccccc3)c2C1` (single isomer, unassigned) [Compound 325], the IC50 lay in the range of 0.1 to 1 µM. To `COC(=O)N1CCc2ccc3c(nc(N4CCN(C(=O)O)CC4)n3[C@H](C)Cc3ccccc3)c2C1` [Compound 54] belongs 0.001 to 0.01 µM; to `COC(=O)N1CCc2ccc3c(nc(C4CCCCC4)n3C[C@@H](C(=O)O)c3cc(F)ccc3OC)c2C1` [Compound 240], 0.01 to 0.1 µM. As for `COC(=O)N1CCc2ccc3c(nc([C@@H]4CCC[C@@H](C(=O)O)C4)n3CC[C@H]3CC[C@@H](OC)CC3)c2C1` [Compound 215], the IC50 was in the range of 0.01 to 0.1 µM. For the compound `COC(=O)N1CCc2ccc3c(nc([C@H]4CC[C@H](C(=O)O)CC4)n3[C@@H](C)C(F)(F)c3ccccc3)c2C1` [Compound 338], the IC50 fell in the range of 0.1 to 1 µM. Take `COC(=O)N1CCc2ccc3c(nc([C@H]4CC[C@H](C(=O)O)CC4)n3CCn3cc(Cl)cn3)c2C1` [Compound 236]: the IC50 is 0.01 to 0.1 µM. For the compound `COC(=O)N1CCc2ccc3c(nc([C@H]4CC[C@H](C(=O)O)CC4)n3[C@H](C)Cc3ccc(C)c(F)c3)c2C1` (single isomer, unassigned) [Compound 283], the IC50 lay within 0.01 to 0.1 µM. On to `COC(=O)N1CCc2ccc3c(nc([C@H]4CC[C@H](C(=O)O)CC4)n3[C@@H](C)C[C@@H]3CCCOC3)c2C1` [Compound 183], for which the IC50 fell in the range of 0.01 to 0.1 µM.
